Values of other authors as cited in patent US8173824B2, “Process for producing vitamin D derivative using convergent method” (Chugai Seiyaku Kabushiki Kaisha, priority 2005, dated 2012).

Legend:
[1] = compared with the conventional vitamin D derivatives; background statement
[2] = test system: human keratinocyte; details: background statement, see WO 2001/096293

SMILES: C=C1/C(=C\C=C2/CCC[C@]3(C)C([C@H](C)OCC(=O)NCC(F)(F)C(F)(F)F)=CCC23)C[C@@H](O)C[C@@H]1O (stereo partly drawn) [Formula (1), [{(5Z,7E)-(1S,3R,20S)-1,3-dihydroxy-9,10-secopregna-5,7,10(19),16-tetraen-20-yl}oxy]-N-(2,2,3,3,3-pentafluoropropyl)acetamide]
- calcium level-raising activity [1]: lower than the conventional vitamin D derivatives
- human keratinocyte growth inhibition activity [2]: exhibits useful human keratinocyte growth inhibition activity
